Data taken from ChEMBL document CHEMBL3046469, “Fungicidal Activities of 2-(Substituted Phenoxymethyl)phenyl-2-methoxyiminoacaetamide Derivatives” (1998).

Experiments:
Type in all cases: functional
[1] = test system: Blumeria graminis f. sp. tritici; assay: Fungicidal activity against Blumeria graminis f. sp. tritici assessed as wheat powdery mildew disease control at 2 ppm foliar application for 48 hr before inoculation by preventive manner
[2] = test system: Botrytis cinerea; assay: Fungicidal activity against Botryotinia fuckeliana assessed as cucumber gray mold disease control at 7.8 ppm foliar application […] at 22 +/- 2 degC by preventive manner
[3] = test system: Pyricularia oryzae; assay: Fungicidal activity against Magnaporthe oryzae assessed as rice blast disease control at 2 ppm foliar application for 24 hr after inoculation at 27 +/- 2 degC measured after 5 days by curative manner
[4] = test system: Pseudoperonospora cubensis; assay: Fungicidal activity against Pseudoperonospora cubensis assessed as cucumber downy mildew disease control at 7.8 ppm foliar application 24 hr before inoculation onto the abaxial(untreated) surface of leaf by preventive manner
[5] = test system: Pyricularia oryzae; assay: Fungicidal activity against Magnaporthe oryzae assessed as rice blast disease control at 2 ppm foliar application for 24 hr before inoculation at 27 +/- 2 degC measured after 5 days by preventive manner
[6] = test system: Podosphaera fuliginea; assay: Fungicidal activity against Podosphaera fuliginea assessed as cucumber powdery mildew control at 2 ppm foliar application 24 hr before inoculation at 23 +/- 2 degC by preventive manner
[7] = test system: Pseudoperonospora cubensis; assay: Fungicidal activity against Pseudoperonospora cubensis assessed as cucumber downy mildew disease control at 2 ppm foliar application 24 hr before inoculation onto the adaxial(treated) surface of leaf by preventive manner
[8] = test system: Podosphaera fuliginea; assay: Fungicidal activity against Podosphaera fuliginea assessed as cucumber powdery mildew control at 2 ppm foliar application 24 hr after inoculation at 23 +/- 2 degC by curative manner
[9] = test system: Blumeria graminis f. sp. tritici; assay: Fungicidal activity against Blumeria graminis f. sp. tritici assessed as wheat powdery mildew disease control at 2 ppm foliar application for 48 hr after inoculation by curative manner
[10] = test system: Thanatephorus cucumeris; assay: Fungicidal activity against Thanatephorus cucumeris assessed as rice sheath blight disease control at 7.8 ppm foliar application for 24 hr before inoculation at 26 +/- 2 degC measured after 5 days by preventive manner
[11] = test system: Botrytis cinerea; assay: Fungicidal activity against Botryotinia fuckeliana assessed as cucumber gray mold disease control at 2 ppm foliar application […] at 22 +/- 2 degC by curative manner
[12] = test system: Pyricularia oryzae; assay: Fungicidal activity against Magnaporthe oryzae assessed as rice blast disease control at 31.3 ppm foliar application for 24 hr before inoculation at 27 +/- 2 degC measured after 5 days by preventive manner
[13] = test system: Pyricularia oryzae; assay: Fungicidal activity against Magnaporthe oryzae assessed as rice blast disease control at 7.8 ppm foliar application for 24 hr after inoculation at 27 +/- 2 degC measured after 5 days by curative manner
[14] = test system: Thanatephorus cucumeris; assay: Fungicidal activity against Thanatephorus cucumeris assessed as rice sheath blight disease control at 125 ppm foliar application for 24 hr before inoculation at 26 +/- 2 degC measured after 5 days by preventive manner
[15] = test system: Pseudoperonospora cubensis; assay: Fungicidal activity against Pseudoperonospora cubensis assessed as cucumber downy mildew disease control at 31.3 ppm foliar application 24 hr before inoculation onto the abaxial(untreated) surface of leaf by preventive manner
[16] = test system: Podosphaera fuliginea; assay: Fungicidal activity against Podosphaera fuliginea assessed as cucumber powdery mildew control at 7.8 ppm foliar application 24 hr before inoculation at 23 +/- 2 degC by preventive manner
[17] = test system: Blumeria graminis f. sp. tritici; assay: Fungicidal activity against Blumeria graminis f. sp. tritici assessed as wheat powdery mildew disease control at 7.8 ppm foliar application 48 hr after inoculation by curative manner
[18] = test system: Podosphaera fuliginea; assay: Fungicidal activity against Podosphaera fuliginea assessed as cucumber powdery mildew control at 7.8 ppm foliar application 24 hr after inoculation at 23 +/- 2 degC by curative manner
[19] = test system: Botrytis cinerea; assay: Fungicidal activity against Botryotinia fuckeliana assessed as cucumber gray mold disease control at 7.8 ppm foliar application […] at 22 +/- 2 degC by curative manner
[20] = test system: Pyricularia oryzae; assay: Fungicidal activity against Magnaporthe oryzae assessed as rice blast disease control at 7.8 ppm foliar application for 24 hr before inoculation at 27 +/- 2 degC measured after 5 days by preventive manner
[21] = test system: Pseudoperonospora cubensis; assay: Fungicidal activity against Pseudoperonospora cubensis assessed as cucumber downy mildew disease control at 7.8 ppm foliar application 24 hr before inoculation onto the adaxial(treated) surface of leaf by preventive manner
[22] = test system: Pseudoperonospora cubensis; assay: Fungicidal activity against Pseudoperonospora cubensis assessed as cucumber downy mildew disease control at 125 ppm foliar application 24 hr before inoculation onto the abaxial(untreated) surface of leaf by preventive manner
[23] = test system: Thanatephorus cucumeris; assay: Fungicidal activity against Thanatephorus cucumeris assessed as rice sheath blight disease control at 31.3 ppm foliar application for 24 hr before inoculation at 26 +/- 2 degC measured after 5 days by preventive manner
[24] = test system: Pseudoperonospora cubensis; assay: Fungicidal activity against Pseudoperonospora cubensis assessed as cucumber downy mildew disease control at 2 ppm foliar application 24 hr before inoculation onto the abaxial(untreated) surface of leaf by preventive manner
[25] = test system: Botrytis cinerea; assay: Fungicidal activity against Botryotinia fuckeliana assessed as cucumber gray mold disease control at 31.3 ppm foliar application […] at 22 +/- 2 degC by preventive manner
[26] = test system: Pyricularia oryzae; assay: Fungicidal activity against Magnaporthe oryzae assessed as rice blast disease control at 125 ppm foliar application for 24 hr after inoculation at 27 +/- 2 degC measured after 5 days by curative manner
[27] = test system: Blumeria graminis f. sp. tritici; assay: Fungicidal activity against Blumeria graminis f. sp. tritici assessed as wheat powdery mildew disease control at 31.3 ppm foliar application for 48 hr after inoculation by curative manner
[28] = test system: Podosphaera fuliginea; assay: Fungicidal activity against Podosphaera fuliginea assessed as cucumber powdery mildew control at 31.3 ppm foliar application 24 hr before inoculation at 23 +/- 2 degC by preventive manner
[29] = test system: Blumeria graminis f. sp. tritici; assay: Fungicidal activity against Blumeria graminis f. sp. tritici assessed as wheat powdery mildew disease control at 7.8 ppm foliar application 48 24 hr before inoculation by preventive manner
[30] = test system: Podosphaera fuliginea; assay: Fungicidal activity against Podosphaera fuliginea assessed as cucumber powdery mildew control at 31.3 ppm foliar application 24 hr after inoculation at 23 +/- 2 degC by curative manner
[31] = test system: Pyricularia oryzae; assay: Fungicidal activity against Magnaporthe oryzae assessed as rice blast disease control at 31.3 ppm foliar application for 24 hr after inoculation at 27 +/- 2 degC measured after 5 days by curative manner

Q: Which results are given for `CNC(=O)/C(=N/OC)c1ccccc1COc1cc(C)ccc1C`?
A: Activity [1]: 90%; Activity [2]: 90%; Activity [3]: 90%; Activity [4]: 90%; Activity [5]: 90%; Activity [6]: 90%; Activity [7]: 90%; Activity [8]: 90%; Activity [9]: 90%; Activity [10]: 90%; Activity [11]: 90%

Q: What does the source list for `CNC(=O)/C(=N/OC)c1ccccc1COc1ccc(Cl)cc1`?
A: Activity [1]: 90%; Activity [2]: 90%; Activity [12]: 90%; Activity [4]: 90%; Activity [13]: 90%; Activity [14]: <90%; Activity [6]: 90%; Activity [7]: 90%; Activity [8]: 90%; Activity [9]: 90%; Activity [11]: 90%

Q: For `CNC(=O)/C(=N/OC)c1ccccc1COc1cccc(OC(C)C)c1`, which Activity [15] is on record?
A: Its Activity is 90%.

Q: What about the Activity [1] of the same molecule?
A: The Activity was 90%.

Q: And the Activity [16]?
A: Its Activity is 90%.

Q: And the Activity [2]?
A: The Activity was 90%.

Q: And the Activity [17]?
A: Its Activity is 90%.

Q: And the Activity [18]?
A: The Activity was 90%.

Q: What about the Activity [19] of the same molecule?
A: Its Activity is 90%.

Q: And the Activity [20]?
A: The Activity was 90%.

Q: And the Activity [21]?
A: The Activity was 90%.

Q: What about the Activity [13] of the same molecule?
A: Its Activity is 90%.

Q: What about the Activity [14] of the same molecule?
A: Its Activity is 90%.

Q: Which results are given for `CNC(=O)/C(=N/OC)c1ccccc1COc1ccc(-c2ccccc2)cc1`?
A: Activity [1]: 90%; Activity [2]: 90%; Activity [17]: 90%; Activity [19]: 90%; Activity [3]: 90%; Activity [22]: 90%; Activity [5]: 90%; Activity [6]: 90%; Activity [7]: 90%; Activity [8]: 90%; Activity [23]: 90%

Q: Which results are given for `CNC(=O)/C(=N/OC)c1ccccc1COc1cc(Cl)ccc1Cl`?
A: Activity [1]: 90%; Activity [2]: 90%; Activity [12]: 90%; Activity [24]: 90%; Activity [6]: 90%; Activity [7]: 90%; Activity [23]: 90%

Q: Which Activity [18] does the source give for `CO/N=C(/C(N)=O)c1ccccc1COc1cc(C)ccc1C` here?
A: The Activity was 90%.

Q: What about the Activity [12] of the same molecule?
A: The Activity was 90%.

Q: What about the Activity [19] of the same molecule?
A: The Activity was 90%.

Q: What about the Activity [13] of the same molecule?
A: Its Activity is 90%.

Q: And the Activity [25]?
A: The Activity was 90%.

Q: What about the Activity [6] of the same molecule?
A: Its Activity is 90%.

Q: For `CNC(=O)/C(=N\OC)c1ccccc1COc1cc(C)ccc1C`, which Activity [1] is on record?
A: The Activity was 90%.

Q: What about the Activity [16] of the same molecule?
A: The Activity was 90%.

Q: And the Activity [2]?
A: The Activity was 90%.

Q: And the Activity [17]?
A: Its Activity is 90%.

Q: And the Activity [18]?
A: The Activity was 90%.

Q: And the Activity [12]?
A: Its Activity is 90%.

Q: What about the Activity [26] of the same molecule?
A: Its Activity is 90%.

Q: What about the Activity [19] of the same molecule?
A: The Activity was 90%.

Q: `CNC(=O)/C(=N/OC)c1ccccc1COc1ccccc1` was tested. Which Activity [15] did it give?
A: Its Activity is 90%.

Q: What about the Activity [27] of the same molecule?
A: The Activity was 90%.

Q: And the Activity [28]?
A: Its Activity is 90%.

Q: What about the Activity [12] of the same molecule?
A: Its Activity is 90%.

Q: What about the Activity [29] of the same molecule?
A: The Activity was 90%.

Q: And the Activity [30]?
A: The Activity was 90%.

Q: And the Activity [19]?
A: The Activity was 90%.

Q: And the Activity [21]?
A: Its Activity is 90%.

Q: What about the Activity [14] of the same molecule?
A: Its Activity is 90%.

Q: And the Activity [25]?
A: Its Activity is 90%.

Q: What about the Activity [31] of the same molecule?
A: The Activity was 90%.
